The text below walks through data of patent US10031142B2, “In situ chemiluminescent substrates and assays” (Life Technologies Corporation, priority 2010, dated 2018).

Read-outs that look alike come from different tables or passages of the source.

The conditions of series [1]: cited from earlier work.
The test system of series [2] is alkaline phosphatase. An excerpt:
Before developing assay conditions with Method B in situ dioxetane generation, we investigated whether the reagents from the oxidation system adversely affected alkaline phosphatase activity. […] Any quenching effects from a singlet oxygen generation/reaction system may be enzyme-specific, and would have to be evaluated for any enzyme/detection substrate pair.

The test system of series [3] is alkaline phosphatase. To be noted: TBQ, 37° C., 25 minutes.
Protocol: The following reagents were used for this: • 0.1M aminomethylpropanol buffer, pH 9.5 (AMP Buffer), • CDP-Star® (CDP*, Life Technologies): 6.2 mg/mL (12.5 mM) in AMP Buffer, • ADP-Star® (ADP*, Life Technologies): 1 mg/mL (2.2 mM) in 0.1M AMP Buffer, • ADP*-EE Oxidation mixture: 1 mg/mL (2.3 mM) in 0.1M AMP Buffer, • TBQ: 10× Sapphire II™ chemiluminescence enhancer (Life Technologies), and • Alkaline Phosphatase stock (AP): 8 ng/mL (from 17.4 mg/mL concentrate).
10 μL ADP* or ADP*-EE Oxidation mixture (0.22 or 0.23 mM, respectively), 10 μL TBQ, 80 μL AMP Buffer and 10 μL AP were combined and the luminescence from the mixture was measured continuously at 37° C. for 25 minutes. 1.6 μL CDP* (0.2 mM), 10 μL TBQ, 80 μL AMP Buffer and 10 μL AP were combined and the luminescence from the mixture was measured continuously at 37° C. for 25 minutes.
The test system of series [4] is alkaline phosphatase. The following applies: in the presence of Sapphire II enhancer.
Description: Benchmarking experiments compared the light emission (in RLUs) and signal to noise (S:N) of in situ ADP-Star with control dioxetanes CSPD®, ADP-Star®, and CDP-Star®.
A short description of series [5]: Thermal stability of aqueous solutions of reagents. The series is classed as physicochemical. An excerpt: The thermal stabilities of aqueous solutions AMPPD®, AMPPD enol ether phosphate (AMPPD-EE) and AMPPD-EE in the presence of Na2MoO4 were examined.

Regarding `OO` [hydrogen peroxide], the “Stability/Storage Conditions” value in series [1] (35% soln, 1 yr, 25° C.) was >99.3% in 1 yr, 25° C.;; in series [1] (35% soln, 24 hr, 100° C.) it was ≥96.0% in 24 hr, 100 °C. Also, the “effect on alkaline phosphatase activity” value in series [2] was “does not affect alkaline phosphatase activity”.

In the case of `[Na+].[Na+].[O]=[Mo](=[O])([O-])[O-]` [sodium molybdate], the “Stability/Storage Conditions” value in series [1] (solid) is on record as ““Stable under ordinary conditions of use &”. Besides, in series [2] (AMPPD substrate, TBQ enhancer, 37° C., 30 minutes), the “effect on alkaline phosphatase activity” value is “significantly quenches alkaline phosphatase activity”. Further, the “light reduction (quenching of alkaline phosphatase activity)” value in series [2] (AMPPD substrate, various amounts of Na2MoO4 stock, 37° C.) is “up to 85%”. Moreover, in series [2] (sodium molybdate <1 mM), the “alkaline phosphatase activity on lowering concentration” value was “restores most of the alkaline phosphatase activity”.

Take `COC(=C1C2CC3CC(C2)CC1C3)c1ccc(Cl)c(OP(=O)([O-])[O-])c1.[Na+].[Na+]` [ADP-Star enol ether phosphate]: the “light emission compared with CDP-Star dioxetane control” value in series [3] was “higher light emission”.

Turning to `COC1(c2cccc(OP(=O)(O)O)c2)OOC12C1CC3CC2CC(Cl)(C3)C1` (stereo not drawn) [CSPD®], the “time reaching glow (maximum light emission)” value in series [4] was determined as 30 min.

Take `COC(=C1C2CC3CC(C2)CC1C3)c1cccc(OP(=O)([O-])[O-])c1.[Na+].[Na+]` [AMPPD-EE]: in series [5] (1 month, 55° C.), the “Stability/Storage Conditions (loss)” value was “Minimal loss in 1 month, 55 °C”. In addition, the thermal decomposition result is listed as “virtually no thermal decomposition” in series [5] (aqueous solution, 40° C. over 4+ months); “minimal thermal decomposition” in series [5] (aqueous solution, 55° C. over 5+ months); “no thermal decomposition” in series [5] (in the presence of Na2MoO4 at 40° C.).

With `COC1(c2cccc(OP(=O)(O)O)c2)OOC12C1CC3CC(C1)CC2C3` (stereo not drawn) [AMPPD®, reference compound], the thermal half-life was around 40 days in series [5] (aqueous solution, 40° C.) and around 10 days in series [5] (aqueous solution, 55° C.).
